Test results published in US8232240B2, “Inhibitors of enveloped virus infectivity” (priority 2005, dated 2012).
“Also recorded” adds a separate entry of the source. Where a SMILES comes first, the peptide text is derived from it. The star is where a group is joined. Cbz = O=C(OCc1ccccc1)*; CHN2 = [N-]=[N+]=C*; tBu = CC(C)(C)*

Experiments:
Marburg-GP = type: cell-based, Marburg virus
CatL = molecular target: T1, CatL (Chlorocebus aethiops, UniProt Q9GKL8); type: cell-based
T1 construct: CatB and Cathepsin L (CatL) enzymatic activities in CA074-treated cells; endogenous in cells; host or cells: Vero cells
T1 sequence (Q9GKL8 114-333): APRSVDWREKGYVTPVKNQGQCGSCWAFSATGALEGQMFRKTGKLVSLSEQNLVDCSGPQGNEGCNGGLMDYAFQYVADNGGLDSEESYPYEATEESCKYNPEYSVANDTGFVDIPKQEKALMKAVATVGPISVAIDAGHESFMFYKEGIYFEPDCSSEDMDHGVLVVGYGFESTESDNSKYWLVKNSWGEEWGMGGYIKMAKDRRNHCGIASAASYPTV

[1] = test system: Marburg (Musoke strain) virus; type: cell-based
Reston GPΔMuc = type: cell-based, Ebola Reston
Sudan GPΔMuc = type: cell-based, Ebola Sudan
CatB = type: cell-based
EboV-Zaire (1995 strain) = type: cell-based
EboV Zaire GP = type: cell-based
Cote d'Ivoire GPΔMuc = type: cell-based, Ebola Cote d'Ivoire
VSV G = type: cell-based, vesicular stomatitis virus (VSV)
[2] = test system: cell-cell fusion mediated by Nipah virus glycoproteins F and G; type: cell-based; settings: 24 hours

Structure (SMILES)	infectivity of Marburg (Marburg-GP)	approximate level of cellular CatL activity (L %) (CatL)	inhibition of growth of Marburg virus on Vero cells [1]	infectivity of Reston (Reston GPΔMuc)	inhibition of infection, Sudan (Sudan GPΔMuc)	approximate level of cellular CatB activity (B %) (CatB)	expression of cell-associated GP1 (EboV-Zaire (1995 strain))	EboV GP-dependent infection of Vero cells (EboV Zaire GP)	block of infection, Ebola Zaire (EboV Zaire GP)	reduction of infection in the absence of detectable CatB activity (EboV Zaire GP)	block of infection, Cote d'Ivoire (Cote d'Ivoire GPΔMuc)	VSV G-dependent infection (VSV G)	infection, Marburg (Marburg-GP)	inhibition of CatL activity (CatL)	infection, Reston (Reston GPΔMuc)	infection, Sudan (Sudan GPΔMuc)	inhibition of CatB activity (CatB)	infection, Zaire (EboV Zaire GP)	cell-cell fusion by Nipah virus glycoproteins (syncytia) [2]	infection, Cote d'Ivoire (Cote d'Ivoire GPΔMuc)
CCCNC(=O)[C@H]1O[C@@H]1C(=O)N[C@H](C(=O)N1CCC[C@H]1C(=O)O)[C@@H](C)CC [CA074]	unaffected	~100%	not each alone	unaffected	90%	~10%	markedly reduced	inhibited infection	~99%	~99.9%	~99%	Neither compound inhibited	–	–	–	–	–	–	–	–
CC(C)(C)Oc1ccc(C[C@H](NC(=O)[C@H](Cc2ccccc2)NC(=O)OCc2ccccc2)C(=O)C=[N+]=[N-])cc1 [FYdmk, Z-Phe-Tyr-(tBu)-diazomethylketone] (Cbz-Phe-Tyr(tBu)-CHN2)	–	~0%	not each alone	–	–	~10%	–	inhibited infection	–	–	–	Neither compound inhibited	blocked	can inhibit	blocked	blocked	can inhibit	blocked	dramatically reduces cell-cell fusion; also recorded: inhibits cell-cell fusion	blocked
